Reference: patent US8609718B2, “Pharmaceutical composition used in treatment of hyperproliferative skin conditions and malignant melanomas comprising pachastrissamine as active ingredient” (Catholic University Industry Academy Cooperation Foundation, priority 2009, dated 2013)
Entries after “also recorded” stand apart in the source; their conditions may differ.

Key:
[1] = tested on: malignant melanoma cell line B16F10; assay: MTT cell viability analysis (cytotoxicity), B16F10; format: cell-based; conditions: 24 hours, FIG. 1
Procedure: Pachastrissamine's cytotoxicity on a HaCaT cell line and a malignant melanoma cell line was researched through MTT cell viability analysis.
First, each of a HaCaT cell line (German Cancer Research, obtained from prof. N. Fuseni, Germany), and two kinds of malignant melanoma cell lines, B16F10 (B16) and A375 were inoculated into a DMEM (Dulbecco's Modified Eagle's Medium) culture medium added with 10% FBS (Thermo Fisher Scientific Inc.), 100 unit/ml penicillin, and 100 μg/ml streptomycin, and then cultured in a CO2 incubator (Form a Scientific, Inc.) (37° C., 5%).
The cultured HaCaT, B16F10, and A375 cells were plated onto a 96-well plate at a concentration of 5×10^4 cells/well, and cultured in a CO2 incubator (37° C., 5%) for 24 hours. The cells in respective wells were treated with pachastrissamine and phytosphingosine at various concentrations of 0, 0.9, 1.8, 3.7, 7.5, 10 μg/ml, and cultured in a CO2 incubator (37° C., 5%) for 24 hours. After the culturing, in a state where the culture medium existed, each well was added with 5 mg/ml MTT reagent at a concentration of 20 μl/[…], and cultured in an incubator for 2 hours. After 2 hours, the culture medium was removed, and each well was added with 150 μl of DMSO (dimethyl sulfoxide). Then, a spectrophotometer was used to measure the absorbance at 540 nm, thereby analyzing the cell viability. Herein, the cell viability was represented as a relative value with respect to 100% of cell viability in a control group not treated with pachastrissamine and phytosphingosine.

HaCaT cell line = assay: Cell counting by hemocytometer, trypan blue exclusion, HaCaT; format: cell-based, human
Procedure: (§1) A HaCaT cell line was cultured in the same manner as described in Example 1. The cultured HaCaT cell line was plated onto a 60 mm plate at a concentration of 5×10^4 cells/well, and cultured in a CO2 incubator (37° C., 5%) for 24 hours. The cultured cells in respective plates were treated with pachastrissamine at a concentration of 10 μg/ml, and cultured in a CO2 incubator (37° C., 5%) for 24, 36, and 48 hours, respectively. After the culturing, the cells were washed with PBS, treated with trypsin-EDTA, and completely detached from the plate. Then, a hemocytometer was used to count the cells through trypan blue exclusion.
HaCaT, B16F10 and A375 cell lines were cultured in the same manner as described in Example 1. The cultured HaCaT cell line was plated onto a 60 mm plate at a concentration of 5×10^4 cells/well, and cultured in a CO2 incubator (37° C., 5%) for 24 hours. The cultured respective cells were divided into 4 groups. One group was added with only pachastrissamine (PA) at a concentration of 10 μg/ml; another group was added with lithium chloride (apoptosis inhibiting material) (at a final concentration of 300 nM) as well as pachastrissamine at a concentration of 10 μg/ml (PA+Li); and a third group was added with only lithium chloride (Li). The last group was a negative control group (Con) and was added with nothing. These groups were cultured in a CO2 incubator (37° C., 5%) for 24 hours, and then the number of cells were measured in the same manner as described in Example 2-2.

A375 cell line = assay: Cell counting by hemocytometer, trypan blue exclusion, A375; format: cell-based; conditions: 24 hours
Procedure: as §1
HaCaT, B16F10 and A375 cell lines were cultured in the same manner as described in Example 1. The cultured HaCaT cell line was plated onto a 60 mm plate at a concentration of 5×10^4 cells/well, and cultured in a CO2 incubator (37° C., 5%) for 24 hours. The cultured respective cells were divided into 4 groups. […] These groups were cultured in a CO2 incubator (37° C., 5%) for 24 hours, and then the number of cells were measured in the same manner as described in Example 2-2.

ERK = assay: Western blotting of ERK activity (pERK) in HaCaT; format: cell-based, human; conditions: pachastrissamine 10 μg/ml, U0126 20 nM, 30 minutes, FIG. 3C
Procedure: A HaCaT cell line was cultured in the same manner as described in Example 1. […] The last group was a negative control group (−) and was added with nothing.

MEK = assay: Western blotting of MEK activity (caMEK or N-Ras/H-Ras over-expression) in HaCaT; format: cell-based, human; conditions: HaCaT with caMEK or N-Ras/H-Ras over-expression; FIGS. 3E, 3F
Procedure: In the same manner, MEK(caMEK) continuously activated in the HaCaT cell line was over-expressed so as to activate ERK in a lower signaling pathway of MEK. The HaCaT cell line whose ERK was activated by MEK was treated with pachastrissamine and U0126 and PD98059 (ERK inhibitors). Then, western blotting was carried out using anti-pMEK, anti-MEK, anti-pEKR, anti-EKR, and anti-actin antibodies so as to carry out comparative analysis (see FIG. 3E).
Further, in the same manner, two DNAs of N-Ras and H-Ras, in a previous step of MEK/ERK signal transduction, were over-expressed through transfection while a HaCaT cell line was cultured. Then, after treatment with pachastrissamine and phytosphingosine, western blotting was carried out using anti-pMEK, and anti-MEK antibodies so as to carry out comparative analysis of MEK activity (see FIG. 3F).

FoxO3a = assay: Western blotting of FoxO3a protein expression in HaCaT; format: cell-based, human
Procedure: A HaCaT cell line was cultured in the same manner as described in Example 1. […] Then, western blotting was carried out by using FoxO3a antibody as a primary antibody.
Then, western blotting was carried out by using FoxO3a antibody as a primary antibody so as to carry out comparative analysis on the level of protein expression.

GSK3-beta / beta-catenin = assay: Western blotting of pGSK3-beta, GSK3-beta, pCatenin and Catenin in HaCaT; format: cell-based, human; conditions: 30 minutes, FIG. 5A
Procedure: The pachastrissamine's effect on beta-catenin protein expression was researched. In the same manner as described in Example 1, a HaCaT cell line was cultured.

beta-catenin = assay: Beta-catenin protein in malignant melanoma cell line (FIG. 5B); format: cell-based
[2] = pachastrissamine 10 μg/ml, LiCl 300 nM

CCCCCCCCCCCCCC[C@@H]1OC[C@H](N)[C@@H]1O [pachastrissamine]
cell viability (number of surviving cells) with increasing concentration ([1]; 0, 0.9, 1.8, 3.7, 7.5, 10 μg/ml): the number of surviving cells was reduced
cytotoxicity compared with phytosphingosine [1]: lower cytotoxicity than phytosphingosine
number of cells over culturing time (cell proliferation) (HaCaT cell line; 10 μg/ml, 24, 36 and 48 hours, control group increased, FIG. 2b): the number of cells decreased
number of cells compared to no treatment (HaCaT cell line; 10 μg/ml, 24 hours, FIGS. 2C, 2D): the number of cells was decreased
number of cells with lithium chloride as well as pachastrissamine, compared to only pachastrissamine (HaCaT cell line; pachastrissamine 10 μg/ml + lithium chloride 300 nM (PA+Li), 24 hours): the number of cells was higher
number of cells compared to no treatment (A375 cell line; 10 μg/ml, FIGS. 2C, 2D): the number of cells was decreased
number of cells with lithium chloride as well as pachastrissamine, compared to only pachastrissamine (A375 cell line; pachastrissamine 10 μg/ml + lithium chloride 300 nM (PA+Li)): the number of cells was higher
ERK activation (phosphorylation of ERK) (ERK): almost completely inhibited the phosphorylation of ERK; also recorded: reduction of ERK activation
MEK activity (upper signal of ERK) (MEK): inhibition effect on MEK
protein expression level of FoxO3a compared to control group (FoxO3a; 5 and 10 μg/ml, 24 hours, FIG. 4A): increased
extent of protein expression of FoxO3a, pachastrissamine and PD98059 together (FoxO3a; pachastrissamine together with PD98059, versus each single material, FIG. 4E): it was not found that the extent of protein expression was increased
extent of protein expression of FoxO3a, pachastrissamine and U0126 together (FoxO3a; pachastrissamine together with U0126, versus each single material, FIG. 4E): significantly increased compared to other samples treated with each single material
level of protein expression of FoxO3a, single material (FoxO3a; treated as in Example 3-2, compared to negative control, FIG. 4E): the amount of FoxO3a protein was increased
beta-catenin protein degradation (GSK3-beta / beta-catenin; 10 μg/ml): induced the degradation of beta-catenin protein
phosphorylation of GSK3-beta (GSK3-beta / beta-catenin; [2]): phosphorylation of GSK3-beta was inhibited
phosphorylation of beta-catenin (GSK3-beta / beta-catenin; [2]): increasing the phosphorylation of beta-catenin
beta-catenin protein degradation in malignant melanoma cell line (beta-catenin): can induce the degradation of beta-catenin protein
